Data on one compound can be found in PMC10349804, “Natural resveratrol analogs differentially target endometriotic cells into apoptosis pathways” (Scientific Reports, 2023).

Common to all, as to assay type: cell-based, human
The test system of assay [1] is endometriotic 12Z cells. The experiment in a line: Annexin V/PI double staining, flow cytometry. The note with it: 200 µM, 48 h. The protocol: After treating endometriotic 12Z cells with stilbenes, the phosphatidylserine externalization was measured by Annexin V and PI double staining (Fig. 4A). Examples of the single-cell images from sub-populations: live cells (Annexin V/PI-double negative), early apoptotic cells (Annexin V-positive/PI-negative), late apoptotic cells (Annexin V/PI-double positive), necrotic cells (Annexin V-negative/PI-positive) are presented in Fig. 4B.
Figure 4 Flow cytometry analysis of endometriotic 12Z cells stained with PI and FITC-Annexin V. Cells were treated with resveratrol, pterostilbene, piceatannol, polydatin and their vehicle (0.5% ethanol) for 48 h. Camptothecin was used as a positive control. (A) Representative images of each distinct cellular subset. n = 4; scale bars = 20 μm. (B) Representative flow cytometry dot plots. (C) Summary of FITC-Annexin V and PI stained populations in 12Z cell cultures. […] The results are presented as means ± SD. *p < 0.05, **p < 0.01, ***p < 0.001 compared to vehicle control.
Apoptosis was determined by Annexin V and propidium iodide (PI) double staining with the FITC Annexin V Apoptosis Detection kit (BD Pharmingen, Heidelberg, Germany) by flow cytometry according to the manufacturer's instructions. […] The cells were analyzed with an Amnis™ FlowSight™ flow cytometer (Luminex Corporation, TX, USA). […]
For orientation: In flow cytometry, cells or beads pass a laser one at a time.

Assay [2] concerns endometriotic 12Z cells. The experiment in a line: TUNEL assay of DNA fragmentation, flow cytometry. The conditions noted are these: 200 µM, 48 h. The procedure: Cell death via apoptosis in 12Z cells after exposure to resveratrol and its natural derivatives was determined by detecting DNA fragmentation (Fig. 5). DNA degradation was correlated in a dose-dependent manner. […] Tunel-positive cell population in the 12Z cell culture treated with camptothecin was estimated at 32.5%, compared to 0.6% in the vehicle-treated control culture.
The detection of DNA fragmentation in 12Z cells was performed using the terminal deoxynucleotidyl-transferase-mediated dUTP nick end labeling (TUNEL) assay with In Situ Cell Death Detection Kit (Roche Diagnostics, Indianapolis, IN, USA). The test detects DNA breakage that is identified by terminal deoxynucleotidyl transferase. After treatment, the harvested cells were fixed in 4% paraformaldehyde and permeabilized in 0.1% Triton X-100. After washing in PBS, cells were subjected to TUNEL labeling with fluorescein-labeled dUTP and terminal deoxynucleotidyl transferase mixture. Cells were analyzed by flow cytometry using an Amnis™ FlowSight™ flow cytometer.

The test system of assay [3] is endometriotic 12Z cells. The experiment in a line: Cell cycle analysis by PI staining, flow cytometry. The note with it: 100 µM, 48 h. The protocol:
To investigate whether resveratrol and its analogs have interfered with cell cycle progression in endometriotic 12Z cells, we analyzed the cell cycle distribution by flow cytometry. […] The largest subpopulation of apoptotic cells was found in the cell cultures treated with resveratrol and pterostilbene at the concentration of 100 µM (31.2 ± 8.0% and 33.1 ± 9.7%, respectively) and piceatannol at a concentration of 200 µM (45.1 ± 5. 6%).
Cell cycle progression was analyzed by flow cytometry using PI staining. After treatment, 12Z cells were collected, washed with PBS, and fixed in 70% ethanol. The cells were then washed, resuspended in PBS, and stained with 50 μg/ml PI in the presence of 100 μg/ml RNase A. Cell cycle distribution was analyzed using a FACSCanto flow cytometer (Becton Dickinson, San Jose, CA, USA). Data analysis was performed with the FACS Diva software (Becton Dickinson).

Assay [4] deals with BAX gene. In words: Real-time PCR, BAX mRNA expression in 12Z cells. The conditions noted are these: 100 µM, fold of control, normalized against β-actin. The source says:
The effect of resveratrol and its natural analogs on the expression of pro- or antiapoptotic regulators, was examined by real-time PCR. […] BAX overexpression was also documented in 12Z cells exposed to resveratrol.
Figure 7 Effect of resveratrol and its analogs on the mRNA expression of BCL2, BCL2L1, BAX, FAS, CASP3, CASP8, and CASP9 genes in endometriotic 12Z cells, assessed by real-time PCR. Data were normalized against β-actin and expressed as relative mRNA expression (-fold of control). The values represent the means (n = 3) ± SD. Significant differences *p < 0.05; **p < 0.01; ***p < 0.001 compared to vehicle control.
Gene expression analysis was carried out according to the previously described protocol. TRI reagent was applied for total RNA isolation, synthesis cDNA Transcriptor First-Strand kit (Roche Diagnostics GmbH, Mannheim, Germany) for first-strand cDNA synthesis, and SYBR® Select Master Mix (Life Technologies, Carlsbad, CA, USA) for real-time PCR. The levels of transcripts were normalized using β-actin as an internal control, which was previously applied in 12Z cells. Relative mRNA expression was shown as fold change calculated using the 2^−ΔΔCt method compared with control cells.
For orientation: In qPCR the cycle at which signal appears reflects the starting amount.

The subject of assay [5] is caspases-3/7. The experiment in a line: APO-One Homogenous Caspase-3/7 Assay in 12Z cells. The protocol:
Resveratrol evoked a dose-dependent caspase-3/7 activation in 12Z cells (F = 2467.29, p < 0.0001). […] It was consistent with the results of CASP3 gene expression activation. […] There was a 2.8-fold activation of caspase 3/7 enzymes following treatment with piceatannol at a 200 μM dose, which complies with the CASP3 mRNA expression level.
To quantitate the proteolytic activity of caspase 3 and 7, we performed an assay based on the proteolytic cleavage of the C-terminal side of the aspartate residue in the DEVD peptide substrate by caspase 3/7 and into the fluorescent rhodamine 110. Caspase 3/7 activity was determined using the APO-One Homogenous Caspase-3/7 Assay (Promega Corporation, Wisconsin, USA) following the manufacturer's instructions. The obtained data were normalized to cellular protein content. The total protein was quantified by BCA assay (Pierce® BCA Protein Assay Kit, Thermo Scientific Inc., USA) according to the manufacturer's protocol.

In the case of `COc1cc(C=Cc2ccc(O)cc2)cc(OC)c1` [Pterostilbene, 3,5-dimethoxy-4′-hydroxystilbene], the “treated cells classified as apoptotic cells” value in assay [1] is given as “approximately 94%”. The “DNA strand breaks (TUNEL-positive cells)” value in assay [2] came out at 62.6%. Moreover, in assay [3], the “subpopulation of apoptotic cells (lower DNA content, subG1)” value stood at 33.1 ± 9.7%. Further, in assay [4], the “BAX mRNA expression increase” value is “approximately 16 fold”. In addition, the caspase-3/7 activity increase entry in assay [5] (100 µM) was “modestly activated”; in assay [5] (200 µM), “inhibited their activity”.
